Measurements taken from patent publication US20050075276A1, “Use of inhibitors of glycogen synthase-3 to augment CD28 dependent -T-cell responses” (priority 2003, published 2005).

Columns and labels:
[1] = tested on: K562 cells; assay: Cytolytic T-cell (CTL) killing of K562 cells, CytoTox96 assay; assay type: cell-based, human; conditions: for potentiation of cytolytic T-cell response: 6 days co-culture, FIG. 5A
Protocol: Cytotoxic activity was also measured and combined with a control where cultures were treated with anti-CD28 mAbs (5 μg/ml). After 6 days, cytolytic T-cells were harvested, washed twice and co-cultured with fresh K562 cells. Cytotoxcity was measured by the CytoTox96 non-radioative cytotoxicity assay from Promega (Southampton, UK).
(§1) Peripheral blood lymphocytes (PBLs) were isolated by Ficoll gradient centrifugation from Buffy coats, or from blood samples (60-120 cc) taken from healthy volunteers. Leukemic cells K562 were first treated with 50 ug/ml Mitomycin C (Sigma) for 1 hour in 5% CO2 incubator at 37° C. and then washed at least three times with RPMI 1640 to remove the presence of drug. Washed K562 cells and PBLs (1:5 ratio) were then resuspended in RPMI 1640 with 5% fetal calf serum, 1% penicillin-streptomycin and 1% L-glutamine. PBLs and leukemic cells were transferred into 24 well plate. […] Occassionally, PBLs would be preincubated with inhibitor for periods of time (i.e. 5-24 hours) prior to incubation with K562 cells. In either case, cell cultures were then allowed to incubate for 8 days in 5% CO2 incubator at 37° C. prior to an assessment of cytotoxic function. Over this period, the K562 cells die due to the treatment with mitomycin c.
For an assessment of cytotoxity, effector cells (PBLs) and fresh target cell K562 were added into 96 well plates at various ratios (50:1; 25:1 etc.). Culture medium, effector cells and target cells were added into separate wells as background controls. Cytotoxicity was assessed using a Cytotoxicity Assay kit (Promega) as outlined by the manufacturer.
Cytotoxicity was measured by CytoTox96® assay.

[2] = tested on: Peripheral T-cells; assay: T-cell proliferation in response to tumor cell line K562 (3H-thymidine incorporation); assay type: cell-based, human; conditions: 48 hours, mitomycin C treated K562; FIG. 4
Protocol: as §1

Row | Structure (SMILES) | effect on cytolytic T-cell (CTL) killing of K562 cells ([1]; FIG. 6, inhibitor added at 1 mM and 5 mM) | potentiation of cytolytic T-cell response ([1]; 10 um, 50:1 effector target ratio) | potentiation of cytolytic T-cell response ([1]; 50 um, 25:1 ratio) | increase in level of proliferative response to K562 [2]
1 | [Cl-].[Li+] [Lithium Chloride] | enhances | – | – | –
2 | O=C1NC(=O)C(c2ccccc2[N+](=O)[O-])=C1Nc1ccc(O)c(Cl)c1 [SB415286] | – | 5-6 fold | 5-6 fold | two-three fold
